Data from ChEMBL document CHEMBL1201862, “PubChem BioAssay data set” (2004).
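Tested at 5 concentrations; 48 h exposure; 96-well plates; endpoints linearly interpolated, else capped at highest concentration. At the GI50, growth is halved.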 Activity calls are given as the source filed them. Cut-off read from the data, not from the text of the source: active = GI50 up to about 1.1 µM and inactive = higher.

Columns and labels:
Test in all cases: NCI-60 cell line screen, 48 h
786-0 = test system: 786-0
ACHN = test system: ACHN
CAKI-1 = test system: CAKI-1
COLO 205 = test system: COLO 205
HCT-116 = test system: HCT-116
HL-60 = test system: HL-60
HOP-62 = test system: HOP-62
HOP-92 = test system: HOP-92
M14 = test system: M14
MDA-MB-435 = test system: MDA-MB-435
NCI-H460 = test system: NCI-H460
NCI-H522 = test system: NCI-H522
OVCAR-5 = test system: OVCAR-5
PC-3 = test system: PC-3
SK-MEL-28 = test system: SK-MEL-28
SK-MEL-2 = test system: SK-MEL-2
SK-OV-3 = test system: SK-OV-3
SW-620 = test system: SW-620
TK-10 = test system: TK-10

Measured: GI50

O=C(O)CNC(=O)c1ccc([As](=O)(O)O)cc1
inactive: 786-0 > 100 µM | ACHN > 100 µM | CAKI-1 > 100 µM | COLO 205 > 100 µM | HCT-116 > 100 µM | HL-60 > 100 µM | HOP-62 > 100 µM | HOP-92 > 100 µM | M14 > 100 µM | MDA-MB-435 > 100 µM | NCI-H460 > 100 µM | NCI-H522 > 100 µM | OVCAR-5 > 100 µM | PC-3 > 100 µM | SK-MEL-28 > 100 µM | SK-MEL-2 > 100 µM | SK-OV-3 > 100 µM | SW-620 > 100 µM | TK-10 > 100 µM

COc1ccc(/C=C/c2nccc3ccccc23)cc1OC
inactive: 786-0 > 10 µM | ACHN > 10 µM | CAKI-1 > 10 µM | COLO 205 > 10 µM | HCT-116 5.9 µM | HL-60 > 10 µM | HOP-62 > 10 µM | HOP-92 6.17 µM | M14 > 10 µM | MDA-MB-435 6.64 µM | NCI-H460 > 10 µM | NCI-H522 > 10 µM | OVCAR-5 > 10 µM | PC-3 > 10 µM | SK-MEL-28 > 10 µM | SK-MEL-2 > 10 µM | SK-OV-3 > 10 µM | SW-620 > 10 µM | TK-10 > 10 µM

C=CCCCCOC1C=CC(O)C(CO)O1 (stereo unspecified)
inactive: 786-0 > 100 µM | ACHN > 100 µM | CAKI-1 > 100 µM | COLO 205 > 100 µM | HCT-116 > 100 µM | HL-60 > 100 µM | HOP-62 > 100 µM | HOP-92 > 100 µM | M14 > 100 µM | MDA-MB-435 > 100 µM | NCI-H460 > 100 µM | NCI-H522 > 100 µM | OVCAR-5 > 100 µM | PC-3 > 100 µM | SK-MEL-28 > 100 µM | SK-MEL-2 > 100 µM | SK-OV-3 > 100 µM | SW-620 > 100 µM | TK-10 > 100 µM

COC(=O)NC(Nc1ccc(C)cc1)(C(F)(F)F)C(F)(F)F
inactive: 786-0 > 100 µM | ACHN > 100 µM | CAKI-1 > 100 µM | COLO 205 > 100 µM | HCT-116 > 100 µM | HL-60 > 100 µM | HOP-62 > 100 µM | HOP-92 > 100 µM | M14 > 100 µM | MDA-MB-435 > 100 µM | NCI-H460 > 100 µM | NCI-H522 > 100 µM | OVCAR-5 > 100 µM | PC-3 > 100 µM | SK-MEL-28 > 100 µM | SK-MEL-2 > 100 µM | SK-OV-3 > 100 µM | SW-620 > 100 µM | TK-10 > 100 µM

Cc1c2c(n(CCc3ccc(Cl)cc3)c1C)NC(c1ccccc1)C(C#N)S2(=O)=O (stereo unspecified)
inactive: 786-0 32.3 µM | ACHN > 100 µM | CAKI-1 > 100 µM | COLO 205 8.36 µM | HCT-116 15.2 µM | HL-60 7 µM | HOP-62 > 79.4 µM | HOP-92 17.5 µM | M14 27.2 µM | MDA-MB-435 11.1 µM | NCI-H460 44.1 µM | NCI-H522 11.7 µM | OVCAR-5 > 100 µM | PC-3 19.6 µM | SK-MEL-28 > 76.6 µM | SK-MEL-2 22.4 µM | SK-OV-3 > 90.6 µM | SW-620 > 45.9 µM | TK-10 > 100 µM

Cn1c(=O)n2n(c1=O)C1C(=CC2)C2C=CC1n1c(=O)n(C)c(=O)n12 (stereo unspecified)
inactive: 786-0 > 100 µM | ACHN > 100 µM | CAKI-1 > 100 µM | COLO 205 > 100 µM | HCT-116 > 100 µM | HL-60 > 100 µM | HOP-62 > 100 µM | HOP-92 > 100 µM | M14 > 100 µM | MDA-MB-435 > 100 µM | NCI-H460 > 100 µM | NCI-H522 > 100 µM | OVCAR-5 > 100 µM | PC-3 > 100 µM | SK-MEL-28 > 100 µM | SK-MEL-2 > 100 µM | SK-OV-3 > 100 µM | SW-620 > 100 µM | TK-10 > 100 µM

CC(C)(C)OC(=O)NC1CC=CCC1NC(=O)OC(C)(C)C (stereo unspecified)
inactive: 786-0 > 100 µM | ACHN > 100 µM | CAKI-1 > 100 µM | COLO 205 > 100 µM | HCT-116 > 100 µM | HL-60 > 100 µM | HOP-62 > 100 µM | HOP-92 > 100 µM | M14 > 100 µM | MDA-MB-435 > 100 µM | NCI-H460 > 100 µM | NCI-H522 > 100 µM | OVCAR-5 > 100 µM | PC-3 > 100 µM | SK-MEL-28 > 100 µM | SK-MEL-2 > 100 µM | SK-OV-3 > 100 µM | SW-620 > 100 µM | TK-10 > 100 µM

CN(C)CCCNC(=O)CCNC(=O)c1cc(NC(=O)c2cc(NC(=O)c3cc(NC(=O)CCCNC(=O)c4cc(NC(=O)c5cc(NC(=O)c6nccn6C)cn5C)cn4C)cn3C)cn2C)cn1C
inactive: 786-0 > 100 µM | ACHN > 100 µM | CAKI-1 > 100 µM | COLO 205 > 100 µM | HCT-116 > 100 µM | HL-60 > 100 µM | HOP-62 > 100 µM | HOP-92 > 100 µM | M14 > 100 µM | MDA-MB-435 > 100 µM | NCI-H460 > 100 µM | NCI-H522 > 100 µM | OVCAR-5 > 100 µM | PC-3 > 100 µM | SK-MEL-28 > 100 µM | SK-MEL-2 > 100 µM | SK-OV-3 > 100 µM | SW-620 > 100 µM | TK-10 > 100 µM

COC(=O)/C(C#N)=C(\Nc1ccccc1)N1CCCC1
inactive: 786-0 > 100 µM | ACHN > 100 µM | CAKI-1 > 100 µM | COLO 205 > 100 µM | HCT-116 > 100 µM | HL-60 > 100 µM | HOP-62 > 100 µM | HOP-92 > 100 µM | M14 > 100 µM | MDA-MB-435 > 100 µM | NCI-H460 > 100 µM | NCI-H522 > 100 µM | OVCAR-5 > 100 µM | PC-3 > 100 µM | SK-MEL-28 > 100 µM | SK-MEL-2 > 100 µM | SK-OV-3 > 100 µM | SW-620 > 100 µM | TK-10 > 100 µM

[N-]=[N+]=NC1=NNC2(C(=O)N1)c1ccccc1-c1ccccc12
inactive: 786-0 > 100 µM | ACHN > 100 µM | CAKI-1 > 100 µM | COLO 205 > 100 µM | HCT-116 14.2 µM | HL-60 > 100 µM | HOP-62 > 100 µM | HOP-92 > 100 µM | M14 > 100 µM | MDA-MB-435 17.4 µM | NCI-H460 > 100 µM | NCI-H522 > 100 µM | OVCAR-5 > 100 µM | PC-3 > 100 µM | SK-MEL-28 > 100 µM | SK-MEL-2 > 100 µM | SK-OV-3 > 100 µM | SW-620 > 100 µM | TK-10 > 100 µM

CC(C)=C[C@@H]1C[C@H](n2cc(C)c(=O)[nH]c2=O)ON1CCO
inactive: 786-0 > 100 µM | ACHN > 100 µM | CAKI-1 > 100 µM | COLO 205 > 100 µM | HCT-116 > 100 µM | HL-60 3.08 µM | HOP-62 > 100 µM | HOP-92 > 100 µM | M14 > 100 µM | MDA-MB-435 > 100 µM | NCI-H460 > 100 µM | NCI-H522 > 100 µM | OVCAR-5 > 100 µM | PC-3 > 100 µM | SK-MEL-28 > 100 µM | SK-MEL-2 > 100 µM | SK-OV-3 > 100 µM | SW-620 > 100 µM | TK-10 > 100 µM

COc1ccccc1C1Nn2c(nc3ccccc3c2=O)N1c1ccc(C)cc1 (stereo unspecified)
inactive: 786-0 2.67 µM | ACHN 4 µM | CAKI-1 7.83 µM | COLO 205 6.65 µM | HCT-116 4.23 µM | HL-60 10.6 µM | HOP-62 6.32 µM | HOP-92 10.4 µM | M14 10.5 µM | MDA-MB-435 8.2 µM | NCI-H460 3.37 µM | NCI-H522 7.8 µM | OVCAR-5 10.4 µM | PC-3 2.71 µM | SK-MEL-28 5.94 µM | SK-MEL-2 11.4 µM | SK-OV-3 3.72 µM | SW-620 5.28 µM | TK-10 6.41 µM

O=C(O)CO/N=C1/C(=C2/C(=O)Nc3ccccc32)Nc2ccccc21
inactive: 786-0 63.4 µM | ACHN > 100 µM | CAKI-1 25.8 µM | COLO 205 57.5 µM | HCT-116 39.6 µM | HL-60 64.4 µM | HOP-62 86.3 µM | HOP-92 37.9 µM | M14 41.1 µM | MDA-MB-435 37.9 µM | NCI-H460 72.8 µM | NCI-H522 52.6 µM | OVCAR-5 > 100 µM | PC-3 33.9 µM | SK-MEL-28 50.8 µM | SK-MEL-2 25.8 µM | SK-OV-3 22.4 µM | SW-620 62.5 µM | TK-10 > 100 µM

CO[C@H]1C[C@H](O[C@H]2CC[C@]3(C=O)[C@H]4CC[C@]5(C)[C@@H](C6=CC(=O)OC6)CC[C@]5(O)[C@@H]4CC[C@]3(O)C2)O[C@H](C)[C@H]1O[C@@H]1O[C@H](CO)[C@@H](O)[C@H](O)[C@H]1O
active: 786-0 > 0.01 µM | ACHN 9.16e-06 µM | CAKI-1 1.34e-05 µM | COLO 205 0.00011 µM | HCT-116 9.73e-06 µM | HL-60 > 0.01 µM | HOP-62 1.26e-05 µM | HOP-92 5.83e-05 µM | M14 4.73e-05 µM | MDA-MB-435 4.61e-05 µM | NCI-H460 9.04e-06 µM | NCI-H522 6.87e-06 µM | OVCAR-5 3.52e-05 µM | PC-3 2.06e-05 µM | SK-MEL-28 6.43e-05 µM | SK-MEL-2 8.26e-05 µM | SK-OV-3 4.23e-05 µM | SW-620 3.16e-05 µM | TK-10 2.48e-05 µM
